From patent publication US20180344805A1, “GLYCOLIPID COMPOUNDS AND THEIR USES IN THE TREATMENT OF TUMOURS” (Agalimmune Limited (GB/GB), priority 2015, published 2018) come the findings set out here.

The structures appear in SMILES notation.

In assay [1] the test system is CHO-K1 cells. The assay is described as follows: Complement Dependent Cytotoxicity Assay. The assay is classed as cell-based. The following applies: for Lysis of glycolipid-labelled cells by human serum complement: CHO-K1 cells labelled with glycolipid, 50% human serum, FIGS. 3 to 5; for EC50: Cricetulus griseus, CHO-K1 cells labelled with glycolipid 1 hour at 37° C., then 50% human serum complement 1 hour at 37° C., cell viability by CellTiter-Glo. As for the experimental part: CHO-K1 cells were harvested from cell culture flasks, counted and resuspended in PBS to a cell density of 5×10^6 cells/ml. Each glycolipid was serially diluted in PBS across nine 1.5 ml centrifuge tubes so that the final volume in the tubes was 100 μl. To each tube, 100 μl of the CHO-K1 cell suspension was added and the tubes incubated for 1 hour at 37° C. After an hour the tubes were placed on ice for 5 minutes and then the cells washed 3 times with 500 μl of ice-cold PBS. The cells were resuspended in a final volume of 250 μl of ice-cold PBS and 50 μl aliquots were transferred to duplicate wells of a 96 well plate. To each well containing cells 50 μl of 100% normal or heat-inactivated (30 minutes at 56° C.) human serum complement (Innovative Research) was added so that the final concentration of human serum was 50%. The plate was incubated at 37° C. for 1 hour, after which cell viability was measured using CellTiter-Glo reagent (Promega) read on a EnVision plate reader (Perkin Elmer).
For orientation: ATP-based viability assays read luminescence as a measure of living cells.

For assay [2], the system named is CHO-K1 cells. The assay is described as follows: Anti-Gal Recruitment Assay. The assay is classed as cell-based. To be noted: CHO-K1 cells incubated with glycolipid 1 hour at 37° C.; monoclonal anti-Gal IgG1, FITC-conjugated anti-human IgG, flow cytometry; FIGS. 1 and 2. As for the experimental part: CHO-K1 cells were harvested from cell culture flasks, counted and resuspended in PBS to a cell density of 5×10^6 cells/ml. Each glycolipid was serially diluted in PBS across nine 1.5 ml centrifuge tubes so that the final volume in the tubes was 100 μl. To each tube, 100 μl of the CHO-K1 cell suspension was added and the tubes incubated for 1 hour at 37° C. After an hour the cells were pelleted by centrifugation at 400 g for 3 minutes and resuspended in 500 μl of PBS+0.1% BSA. This was repeated twice more to wash the cells. After the final wash the cells were resuspended in 100 μl of monoclonal anti-Gal IgG1 diluted 1:8 in PBS+0.1% BSA. The tubes were incubated on ice for 30 minutes. After 30 minutes the cells were pelleted by centrifugation at 400 g for 3 minutes and resuspended in 500 μl of PBS+0.1% BSA. This was repeated twice more to wash the cells. After the final wash the cells were resuspended in 100 μl of FITC-conjugated mouse anti-human IgG (Biolegend) and the tubes incubated on ice for 30 minutes. After 30 minutes the cells were pelleted by centrifugation at 400 g for 3 minutes and resuspended in 500 μl of PBS+0.1% BSA. This was repeated twice more to wash the cells. […] After 5 minutes incubation on ice the cells were analysed on a Cytomics FC500 flow cytometer (Beckman Coulter). […]
Background: In flow cytometry, cells or beads pass a laser one at a time.

In general, EC50 refers to the midpoint of the concentration-response curve. A lower EC50 goes with an effect from little substance.

As for `CCCCCCCC/C=C\CCCCCCCC(=O)OCC(COP(=O)(O)OCCNC(=O)CCCCC(=O)NCCCO[C@@H]1OC(CO)[C@@H](O[C@@H]2OC(CO)[C@H](O)C(O[C@H]3OC(CO)[C@H](O)C(O)C3NC(C)=O)C2O)C(O)C1NC(C)=O)OC(=O)CCCCCCC/C=C\CCCCCCCC` (some centres unmarked) [Example 3, GalNAcα1-3Galβ1-4GlcNAc-Ad-DOPE], in the assay with CHO-K1 cells [1], the “Lysis of glycolipid-labelled cells by human serum complement” value is “are lysed by human serum complement” and a half-maximal effect (EC50) was put at 86.8 µM.
On to `CCCCCCCC/C=C\CCCCCCCC(=O)OCC(COP(=O)(O)OCCNC(=O)CCCCC(=O)NCC(=O)NCC(=O)N(CC(=O)O)CC(=O)NCC(=O)NCC(=O)N(CC(=O)O)CC(=O)NCCNC(=O)CN(CC(=O)O)C(=O)CNC(=O)CNC(=O)CN(CC(=O)O)C(=O)CNC(=O)CNC(=O)CCCCC(=O)NCCCO[C@@H]1OC(CO)[C@@H](O[C@@H]2OC(CO)[C@H](O)[C@H](O[C@H]3OC(CO)[C@H](O)[C@H](O)C3O)C2O)[C@H](O)C1NC(C)=O)OC(=O)CCCCCCC/C=C\CCCCCCCC` (some centres unmarked) [Example 1, Galili-CMG2-DOPE], for which the “Membrane incorporation and recruitment of anti-Gal antibody” value with CHO-K1 cells [2] was “incorporates into the plasma membrane of CHO-K1 cells and presents the alpha-Gal epitope for recognition by anti-Gal antibodies”. Moreover, in the assay with CHO-K1 cells [1], the “Lysis of glycolipid-labelled cells by human serum complement” value is given as “are lysed by human serum complement” and the response was half-maximal at 7.02 µM (EC50).
